Results: PubChem BioAssay (NCI)
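How tested: cells in 96-well plates exposed to compound for 48 hours at five concentrations. Here, GI50 denotes the concentration required for 50% inhibition of growth. TGI is the concentration that stops growth completely.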

Columns and labels:
Assay in all cases: DTP human tumour cell line panel, 48 h
[1] = tested on: 786-0 renal
[2] = tested on: A549 NSCLC
[3] = tested on: ACHN renal
[4] = tested on: BT-549 breast
[5] = tested on: CAKI-1 renal
[6] = tested on: CCRF-CEM leukemia
[7] = tested on: COLO 205 colon
[8] = tested on: DU-145 prostate
[9] = tested on: HCC-2998 colon
[10] = tested on: HCT-116 colon
[11] = tested on: HCT-15 colon
[12] = tested on: HL-60(TB) leukemia
[13] = tested on: HOP-62 NSCLC
[14] = tested on: HOP-92 NSCLC
[15] = tested on: HS 578T breast
[16] = tested on: HT29 colon
[17] = tested on: IGROV1 ovarian
[18] = tested on: K-562 leukemia
[19] = tested on: KM12 colon
[20] = tested on: LOX IMVI melanoma
[21] = tested on: M14 melanoma
[22] = tested on: MALME-3M melanoma
[23] = tested on: MCF7 breast
[24] = tested on: MDA-MB-231 breast
[25] = tested on: MDA-MB-435
[26] = tested on: MOLT-4 leukemia
[27] = tested on: NCI-H23 lung
[28] = tested on: NCI-H460 lung
[29] = tested on: NCI-H522 lung
[30] = tested on: NCI/ADR-RES ovarian
[31] = tested on: OVCAR-3 ovarian
[32] = tested on: OVCAR-5 ovarian
[33] = tested on: OVCAR-8 ovarian
[34] = tested on: PC-3 prostate
[35] = tested on: RPMI-8226 leukemia
[36] = tested on: RXF 393 renal
[37] = tested on: SF-268 CNS
[38] = tested on: SF-295 CNS
[39] = tested on: SF-539 CNS
[40] = tested on: SK-MEL-2 melanoma
[41] = tested on: SK-MEL-28 melanoma
[42] = tested on: SK-MEL-5 melanoma
[43] = tested on: SK-OV-3 ovarian
[44] = tested on: SN12C renal
[45] = tested on: SNB-19 CNS
[46] = tested on: SNB-75 CNS
[47] = tested on: SR leukemia
[48] = tested on: SW-620 colon
[49] = tested on: T-47D breast
[50] = tested on: TK-10 renal
[51] = tested on: U251 CNS
[52] = tested on: UACC-257 melanoma
[53] = tested on: UACC-62 melanoma
[54] = tested on: A498 renal
[55] = tested on: EKVX NSCLC
[56] = tested on: NCI-H226 lung
[57] = tested on: OVCAR-4 ovarian
[58] = tested on: UO-31 renal

Cn1cc(C2=C(c3cn(C4CCN(Cc5ccccn5)CC4)c4ccccc34)C(=O)NC2=O)c2ccccc21
GI50 [1]: 8.43 µM
TGI [1]: > 91.1 µM
GI50 [2]: 4.92 µM
TGI [2]: > 100 µM
GI50 [3]: 9.36 µM
TGI [3]: > 100 µM
GI50 [4]: 7.56 µM
TGI [4]: > 100 µM
GI50 [5]: > 21.6 µM
TGI [5]: > 100 µM
GI50 [6]: 3.75 µM
TGI [6]: > 100 µM
GI50 [7]: 3.08 µM
TGI [7]: > 100 µM
GI50 [8]: > 100 µM
TGI [8]: > 100 µM
GI50 [9]: > 100 µM
TGI [9]: > 100 µM
GI50 [10]: 3.03 µM
TGI [10]: > 100 µM
GI50 [11]: 3.44 µM
TGI [11]: > 100 µM
GI50 [12]: 3.97 µM
TGI [12]: > 100 µM
GI50 [13]: 12.1 µM
TGI [13]: 54.9 µM
GI50 [14]: 83.2 µM
TGI [14]: > 100 µM
GI50 [15]: 3.75 µM
TGI [15]: > 72.1 µM
GI50 [16]: 2.4 µM
TGI [16]: > 100 µM
GI50 [17]: 9.7 µM
TGI [17]: > 100 µM
GI50 [18]: 3.87 µM
TGI [18]: > 100 µM
GI50 [19]: 3.85 µM
TGI [19]: > 100 µM
GI50 [20]: 4.9 µM
TGI [20]: > 100 µM
GI50 [21]: 4.61 µM
TGI [21]: > 100 µM
GI50 [22]: > 23.4 µM
TGI [22]: > 100 µM
GI50 [23]: 3.23 µM
TGI [23]: > 100 µM
GI50 [24]: > 100 µM
TGI [24]: > 100 µM
GI50 [25]: 2.87 µM
TGI [25]: > 100 µM
GI50 [26]: 3.52 µM
TGI [26]: > 100 µM
GI50 [27]: 6.31 µM
TGI [27]: > 100 µM
GI50 [28]: 4.92 µM
TGI [28]: > 100 µM
GI50 [29]: 4.19 µM
TGI [29]: > 100 µM
GI50 [30]: 4.34 µM
TGI [30]: > 100 µM
GI50 [31]: 3.82 µM
TGI [31]: > 100 µM
GI50 [32]: > 100 µM
TGI [32]: > 100 µM
GI50 [33]: 6.23 µM
TGI [33]: > 100 µM
GI50 [34]: 3.97 µM
TGI [34]: > 100 µM
GI50 [35]: 3.93 µM
TGI [35]: > 100 µM
GI50 [36]: 2.59 µM
TGI [36]: 25.3 µM
GI50 [37]: > 36.8 µM
TGI [37]: > 100 µM
GI50 [38]: 3.49 µM
TGI [38]: > 26.1 µM
GI50 [39]: 3.03 µM
TGI [39]: > 100 µM
GI50 [40]: 3.08 µM
TGI [40]: 47.5 µM
GI50 [41]: 6.07 µM
TGI [41]: > 100 µM
GI50 [42]: 2.94 µM
TGI [42]: > 25.9 µM
GI50 [43]: 5.55 µM
TGI [43]: > 100 µM
GI50 [44]: > 100 µM
TGI [44]: > 100 µM
GI50 [45]: > 70.2 µM
TGI [45]: > 100 µM
GI50 [46]: 0.358 µM
TGI [46]: 9.74 µM
GI50 [47]: 3.19 µM
TGI [47]: > 100 µM
GI50 [48]: 4.02 µM
TGI [48]: > 100 µM
GI50 [49]: 5.45 µM
TGI [49]: > 100 µM
GI50 [50]: > 41.5 µM
TGI [50]: > 100 µM
GI50 [51]: 3.74 µM
TGI [51]: > 100 µM
GI50 [52]: 4.73 µM
TGI [52]: > 100 µM
GI50 [53]: 5.12 µM
TGI [53]: > 100 µM

O=C(N/N=C/c1ccccc1O)c1ccccc1
GI50 [1]: 0.339 µM
TGI [1]: 1.83 µM
GI50 [54]: 7.28 µM
TGI [54]: > 100 µM
GI50 [2]: 3.9 µM
TGI [2]: > 100 µM
GI50 [3]: 2.08 µM
TGI [3]: 54.2 µM
GI50 [4]: 3.6 µM
TGI [4]: > 100 µM
GI50 [6]: 0.35 µM
TGI [6]: 8.3 µM
GI50 [7]: 0.75 µM
TGI [7]: > 100 µM
GI50 [8]: 3.27 µM
TGI [8]: > 100 µM
GI50 [55]: 2 µM
TGI [55]: > 100 µM
GI50 [9]: 0.6 µM
TGI [9]: 8.34 µM
GI50 [10]: 0.309 µM
TGI [10]: 5.19 µM
GI50 [11]: 0.893 µM
TGI [11]: > 100 µM
GI50 [12]: 2.32 µM
TGI [12]: 8.05 µM
GI50 [13]: 1.61 µM
TGI [13]: 8.61 µM
GI50 [14]: 5.84 µM
TGI [14]: > 100 µM
GI50 [15]: 27.1 µM
TGI [15]: > 100 µM
GI50 [16]: 3.43 µM
TGI [16]: > 100 µM
GI50 [17]: 1.84 µM
TGI [17]: > 100 µM
GI50 [18]: 3.59 µM
TGI [18]: > 100 µM
GI50 [19]: 4.1 µM
TGI [19]: > 100 µM
GI50 [20]: 1.47 µM
TGI [20]: 10.9 µM
GI50 [21]: 1.75 µM
TGI [21]: 15.3 µM
GI50 [22]: 4.26 µM
TGI [22]: 46.7 µM
GI50 [23]: 2.86 µM
TGI [23]: > 100 µM
GI50 [24]: 5.11 µM
TGI [24]: > 100 µM
GI50 [25]: 4.68 µM
TGI [25]: > 100 µM
GI50 [26]: 0.503 µM
TGI [26]: > 100 µM
GI50 [56]: 1.94 µM
TGI [56]: 17.4 µM
GI50 [27]: 4.92 µM
TGI [27]: > 100 µM
GI50 [28]: 1.18 µM
TGI [28]: > 100 µM
GI50 [29]: 2.67 µM
TGI [29]: 53 µM
GI50 [30]: 1.94 µM
TGI [30]: 27.6 µM
GI50 [31]: 0.669 µM
TGI [31]: > 100 µM
GI50 [57]: 0.725 µM
TGI [57]: > 100 µM
GI50 [32]: 2.5 µM
TGI [32]: > 100 µM
GI50 [33]: 3.46 µM
TGI [33]: > 100 µM
GI50 [34]: 6.53 µM
TGI [34]: > 100 µM
GI50 [35]: 0.583 µM
TGI [35]: 8.52 µM
GI50 [36]: 2.68 µM
TGI [36]: 50.9 µM
GI50 [37]: 1.07 µM
TGI [37]: > 100 µM
GI50 [38]: 1.1 µM
TGI [38]: 52.1 µM
GI50 [39]: 3.19 µM
TGI [39]: 66.8 µM
GI50 [40]: > 100 µM
TGI [40]: > 100 µM
GI50 [41]: 6.69 µM
TGI [41]: > 100 µM
GI50 [42]: 2.97 µM
TGI [42]: > 100 µM
GI50 [43]: 5.14 µM
TGI [43]: > 100 µM
GI50 [44]: 2.45 µM
TGI [44]: > 100 µM
GI50 [45]: 6.22 µM
TGI [45]: > 100 µM
GI50 [46]: 3.5 µM
TGI [46]: > 100 µM
GI50 [47]: 1.79 µM
TGI [47]: 28.4 µM
GI50 [48]: 2.84 µM
TGI [48]: > 100 µM
GI50 [49]: 0.457 µM
TGI [49]: > 100 µM
GI50 [50]: 4.11 µM
TGI [50]: > 100 µM
GI50 [51]: 1.94 µM
TGI [51]: > 100 µM
GI50 [52]: 3.47 µM
TGI [52]: 37.1 µM
GI50 [53]: 1.87 µM
TGI [53]: 7.16 µM
GI50 [58]: 1.53 µM
TGI [58]: 11.7 µM
